{"source": "paper PMC9653409", "about": "“Generative deep learning enables the discovery of a potent and selective RIPK1 inhibitor” (Nature Communications, 2022)", "test_in_all_cases": "Kinase inhibitory activity profiling of RI-962@10 µM (406 kinases, Eurofins)", "assay_type_in_all_cases": "biochemical", "key": {"[1]": {"target": "panel of human kinases (kinase named in endpoint) (Homo sapiens, UniProt P08581, D1228H)", "conditions": "10 µM; read-out: Activity (%), Met(D1246H)(h)", "outline": "(§1)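 Radiometric filter-binding kinase assays: enzyme preincubated 15 min with compound in 8 mM MOPS pH 7.0, 0.2 mM EDTA, 250 μM peptide substrate, 10 mM magnesium acetate, 10 μM [γ-33P]-ATP. Reaction started with Mg/ATP, run 40 min at room temperature, stopped with phosphoric acid; 33P incorporation read by scintillation counting. Other kinases by similar protocols.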"}, "[2]": {"target": "panel of human kinases (kinase named in endpoint) (Homo sapiens, UniProt P49137)", "conditions": "10 µM; read-out: Activity (%), MAPKAP-K2(h)", "outline": "as §1"}, "[3]": {"target": "panel of human kinases (kinase named in endpoint) (Homo sapiens, UniProt Q99683)", "conditions": "10 µM; read-out: Activity (%), ASK1(h)", "outline": "as §1"}, "[4]": {"target": "panel of human kinases (kinase named in endpoint) (Homo sapiens, UniProt P10721, D816V)", "conditions": "10 µM; read-out: Activity (%), cKit(D816V)(h)", "outline": "as §1"}, "[5]": {"target": "panel of human kinases (kinase named in endpoint) (Homo sapiens, UniProt P46734)", "conditions": "10 µM; read-out: Activity (%), MKK3(h)", "outline": "as §1"}, "[6]": {"target": "panel of human kinases (kinase named in endpoint) (Homo sapiens, UniProt Q16816)", "conditions": "10 µM; read-out: Activity (%), PhKγ1(h)", "outline": "as §1"}, "[7]": {"target": "panel of human kinases (kinase named in endpoint) (Homo sapiens, UniProt P36888)", "conditions": "10 µM; read-out: Activity (%), Flt3(h)", "outline": "as §1"}, "[8]": {"target": "panel of human kinases (kinase named in endpoint) (Homo sapiens, UniProt Q96RR4)", "conditions": "10 µM; read-out: Activity (%), CaMKK2(h)", "outline": "as §1"}, "[9]": {"target": "panel of human kinases (kinase named in endpoint) (Homo sapiens, UniProt P36897)", "sequence (P36897 34-503)": "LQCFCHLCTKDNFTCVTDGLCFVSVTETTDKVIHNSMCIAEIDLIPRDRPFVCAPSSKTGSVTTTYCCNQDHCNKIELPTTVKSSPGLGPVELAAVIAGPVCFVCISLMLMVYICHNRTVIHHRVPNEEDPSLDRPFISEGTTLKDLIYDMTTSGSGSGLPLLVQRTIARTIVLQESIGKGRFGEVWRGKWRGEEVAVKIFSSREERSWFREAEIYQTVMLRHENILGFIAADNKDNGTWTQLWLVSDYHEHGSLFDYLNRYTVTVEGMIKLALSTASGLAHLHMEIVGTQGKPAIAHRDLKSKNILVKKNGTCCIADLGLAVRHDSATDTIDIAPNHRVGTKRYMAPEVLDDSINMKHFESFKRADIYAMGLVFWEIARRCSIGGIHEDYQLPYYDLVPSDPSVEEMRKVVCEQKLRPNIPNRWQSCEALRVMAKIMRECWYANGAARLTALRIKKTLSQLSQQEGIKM", "conditions": "10 µM; read-out: Activity (%), TGFBR1(h)", "outline": "as §1"}, "[10]": {"target": "panel of human kinases (kinase named in endpoint) (Homo sapiens, UniProt Q9H2K8)", "conditions": "10 µM; read-out: Activity (%), TAO3(h)", "outline": "as §1"}, "[11]": {"target": "panel of human kinases (kinase named in endpoint) (Homo sapiens, UniProt P52333)", "conditions": "10 µM; read-out: Activity (%), JAK3(h)", "outline": "as §1"}, "[12]": {"target": "panel of human kinases (kinase named in endpoint) (Homo sapiens, UniProt O15530)", "conditions": "10 µM; read-out: Activity (%), PDK1(h)", "outline": "as §1"}, "[13]": {"target": "panel of human kinases (kinase named in endpoint) (Homo sapiens, UniProt Q8IZX4)", "conditions": "10 µM; read-out: Activity (%), TAF1L(h)", "outline": "as §1"}, "[14]": {"target": "panel of human kinases (kinase named in endpoint) (Homo sapiens, UniProt P23443)", "conditions": "10 µM; read-out: Activity (%), p70S6K(h)", "outline": "as §1"}, "[15]": {"target": "panel of human kinases (kinase named in endpoint) (Homo sapiens, UniProt P25098)", "sequence (P25098 whole entry)": "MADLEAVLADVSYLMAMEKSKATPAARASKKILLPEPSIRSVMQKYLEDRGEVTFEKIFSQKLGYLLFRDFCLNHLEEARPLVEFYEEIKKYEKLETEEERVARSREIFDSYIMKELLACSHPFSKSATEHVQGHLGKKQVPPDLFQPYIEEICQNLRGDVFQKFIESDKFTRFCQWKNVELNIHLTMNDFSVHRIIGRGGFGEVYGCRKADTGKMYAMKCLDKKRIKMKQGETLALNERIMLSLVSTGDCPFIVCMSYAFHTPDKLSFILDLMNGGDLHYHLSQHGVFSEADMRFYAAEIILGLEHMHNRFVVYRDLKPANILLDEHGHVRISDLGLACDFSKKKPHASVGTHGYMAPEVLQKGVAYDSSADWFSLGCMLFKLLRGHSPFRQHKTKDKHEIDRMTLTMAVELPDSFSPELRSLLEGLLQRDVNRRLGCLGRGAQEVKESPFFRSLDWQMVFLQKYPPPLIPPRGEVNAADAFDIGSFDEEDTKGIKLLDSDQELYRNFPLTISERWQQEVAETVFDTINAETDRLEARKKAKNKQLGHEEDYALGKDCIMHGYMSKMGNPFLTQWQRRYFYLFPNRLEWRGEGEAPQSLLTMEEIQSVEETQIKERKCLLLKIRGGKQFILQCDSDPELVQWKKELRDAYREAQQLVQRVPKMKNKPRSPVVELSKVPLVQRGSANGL", "conditions": "10 µM; read-out: Activity (%), GRK2(h)", "outline": "as §1"}, "[16]": {"target": "panel of human kinases (kinase named in endpoint) (Homo sapiens, UniProt O00238)", "sequence (O00238 14-502)": "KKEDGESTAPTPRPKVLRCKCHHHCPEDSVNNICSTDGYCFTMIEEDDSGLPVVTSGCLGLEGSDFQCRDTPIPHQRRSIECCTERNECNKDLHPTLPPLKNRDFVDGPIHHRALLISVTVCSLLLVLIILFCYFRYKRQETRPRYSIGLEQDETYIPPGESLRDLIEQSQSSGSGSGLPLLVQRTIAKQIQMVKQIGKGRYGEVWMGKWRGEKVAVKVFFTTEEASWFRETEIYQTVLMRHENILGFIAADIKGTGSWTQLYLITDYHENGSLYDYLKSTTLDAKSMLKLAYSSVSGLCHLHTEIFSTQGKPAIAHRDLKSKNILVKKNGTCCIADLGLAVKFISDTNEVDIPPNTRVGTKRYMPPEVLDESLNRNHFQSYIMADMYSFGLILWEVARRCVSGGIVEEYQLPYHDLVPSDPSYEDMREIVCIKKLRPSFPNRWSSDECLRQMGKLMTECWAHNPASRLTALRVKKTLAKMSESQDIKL", "conditions": "10 µM; read-out: Activity (%), ALK6(h)", "outline": "as §1"}, "[17]": {"target": "panel of human kinases (kinase named in endpoint) (Homo sapiens, UniProt Q8IU85)", "sequence (Q8IU85 whole entry)": "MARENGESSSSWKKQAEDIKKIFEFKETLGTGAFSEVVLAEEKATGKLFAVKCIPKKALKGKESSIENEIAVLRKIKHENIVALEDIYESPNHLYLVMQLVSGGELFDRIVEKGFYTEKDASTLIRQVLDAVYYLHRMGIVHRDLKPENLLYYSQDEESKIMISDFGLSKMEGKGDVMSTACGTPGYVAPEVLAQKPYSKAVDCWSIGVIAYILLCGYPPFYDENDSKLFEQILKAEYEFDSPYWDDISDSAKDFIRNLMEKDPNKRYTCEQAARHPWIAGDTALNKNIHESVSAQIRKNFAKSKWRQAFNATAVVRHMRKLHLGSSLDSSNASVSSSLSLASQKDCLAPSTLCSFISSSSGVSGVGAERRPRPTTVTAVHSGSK", "conditions": "10 µM; read-out: Activity (%), CaMKIδ(h)", "outline": "as §1"}, "[18]": {"target": "panel of human kinases (kinase named in endpoint) (Homo sapiens, UniProt P54646)", "sequence (P54646 whole entry)": "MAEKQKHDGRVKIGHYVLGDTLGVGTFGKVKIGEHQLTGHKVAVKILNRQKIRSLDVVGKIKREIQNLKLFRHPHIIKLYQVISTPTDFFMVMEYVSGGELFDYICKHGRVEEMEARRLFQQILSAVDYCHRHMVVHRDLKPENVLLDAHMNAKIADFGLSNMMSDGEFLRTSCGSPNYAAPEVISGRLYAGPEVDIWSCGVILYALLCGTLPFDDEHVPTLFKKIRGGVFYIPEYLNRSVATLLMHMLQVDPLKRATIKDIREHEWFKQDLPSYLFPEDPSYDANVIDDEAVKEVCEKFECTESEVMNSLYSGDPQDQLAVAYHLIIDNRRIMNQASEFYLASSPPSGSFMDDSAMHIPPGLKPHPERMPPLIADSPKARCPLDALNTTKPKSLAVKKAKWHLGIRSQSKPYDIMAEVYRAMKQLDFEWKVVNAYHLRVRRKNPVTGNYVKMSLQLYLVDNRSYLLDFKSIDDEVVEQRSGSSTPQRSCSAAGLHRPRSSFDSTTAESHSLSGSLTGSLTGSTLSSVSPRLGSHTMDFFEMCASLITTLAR", "conditions": "10 µM; read-out: Activity (%), AMPKα2(h)", "outline": "as §1"}, "[19]": {"target": "panel of human kinases (kinase named in endpoint) (Homo sapiens, UniProt P17948)", "sequence (P17948 27-1338)": "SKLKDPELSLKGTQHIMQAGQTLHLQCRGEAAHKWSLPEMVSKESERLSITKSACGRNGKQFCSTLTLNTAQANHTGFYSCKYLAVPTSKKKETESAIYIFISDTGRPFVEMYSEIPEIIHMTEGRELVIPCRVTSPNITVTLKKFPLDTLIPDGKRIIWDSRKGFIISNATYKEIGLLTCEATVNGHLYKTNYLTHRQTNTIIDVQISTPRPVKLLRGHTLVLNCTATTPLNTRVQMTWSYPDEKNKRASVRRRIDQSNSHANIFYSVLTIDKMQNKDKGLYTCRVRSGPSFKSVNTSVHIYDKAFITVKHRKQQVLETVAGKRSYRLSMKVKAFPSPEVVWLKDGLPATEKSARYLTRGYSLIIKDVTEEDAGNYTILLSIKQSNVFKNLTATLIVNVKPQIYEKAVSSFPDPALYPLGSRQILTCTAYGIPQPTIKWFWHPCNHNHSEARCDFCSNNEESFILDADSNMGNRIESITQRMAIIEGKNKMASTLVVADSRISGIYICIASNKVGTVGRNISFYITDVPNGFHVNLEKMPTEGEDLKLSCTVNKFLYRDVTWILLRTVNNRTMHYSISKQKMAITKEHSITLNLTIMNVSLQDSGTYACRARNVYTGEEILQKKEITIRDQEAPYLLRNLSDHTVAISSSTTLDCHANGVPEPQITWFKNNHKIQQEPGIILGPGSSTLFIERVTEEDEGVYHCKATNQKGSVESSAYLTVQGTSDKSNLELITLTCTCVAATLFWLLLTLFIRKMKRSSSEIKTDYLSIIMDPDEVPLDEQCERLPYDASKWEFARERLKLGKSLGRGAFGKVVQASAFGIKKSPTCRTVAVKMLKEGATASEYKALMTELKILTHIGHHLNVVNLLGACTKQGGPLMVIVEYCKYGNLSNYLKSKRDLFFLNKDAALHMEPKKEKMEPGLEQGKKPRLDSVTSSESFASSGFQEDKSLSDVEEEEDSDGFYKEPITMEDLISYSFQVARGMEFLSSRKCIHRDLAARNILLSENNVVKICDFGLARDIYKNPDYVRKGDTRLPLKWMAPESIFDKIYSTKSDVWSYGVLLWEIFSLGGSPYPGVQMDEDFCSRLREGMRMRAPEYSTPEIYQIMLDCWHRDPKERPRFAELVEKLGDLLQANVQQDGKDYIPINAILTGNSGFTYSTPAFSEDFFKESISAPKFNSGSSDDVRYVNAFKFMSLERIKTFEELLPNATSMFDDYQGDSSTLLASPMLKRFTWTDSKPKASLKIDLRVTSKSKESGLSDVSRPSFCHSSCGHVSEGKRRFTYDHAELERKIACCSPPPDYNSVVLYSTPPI", "conditions": "10 µM; read-out: Activity (%), Flt1(h)", "outline": "as §1"}, "[20]": {"target": "panel of human kinases (kinase named in endpoint) (Homo sapiens, UniProt O15264)", "sequence (O15264 whole entry)": "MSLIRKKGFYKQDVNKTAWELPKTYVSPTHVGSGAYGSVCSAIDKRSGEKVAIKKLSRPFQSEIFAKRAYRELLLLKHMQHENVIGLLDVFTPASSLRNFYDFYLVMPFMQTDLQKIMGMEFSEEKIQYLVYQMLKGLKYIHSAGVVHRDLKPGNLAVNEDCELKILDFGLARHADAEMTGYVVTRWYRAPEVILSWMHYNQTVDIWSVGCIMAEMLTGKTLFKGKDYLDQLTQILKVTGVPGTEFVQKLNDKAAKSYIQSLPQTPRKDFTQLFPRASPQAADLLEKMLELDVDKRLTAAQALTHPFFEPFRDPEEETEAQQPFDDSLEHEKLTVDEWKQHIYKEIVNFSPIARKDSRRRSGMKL", "conditions": "10 µM; read-out: Activity (%), SAPK4(h)", "outline": "as §1"}, "[21]": {"target": "panel of human kinases (kinase named in endpoint) (Homo sapiens, UniProt Q8TF76)", "conditions": "10 µM; read-out: Activity (%), Haspin(h)", "outline": "as §1"}, "[22]": {"target": "panel of human kinases (kinase named in endpoint) (Homo sapiens, UniProt Q09013)", "sequence (Q09013 whole entry)": "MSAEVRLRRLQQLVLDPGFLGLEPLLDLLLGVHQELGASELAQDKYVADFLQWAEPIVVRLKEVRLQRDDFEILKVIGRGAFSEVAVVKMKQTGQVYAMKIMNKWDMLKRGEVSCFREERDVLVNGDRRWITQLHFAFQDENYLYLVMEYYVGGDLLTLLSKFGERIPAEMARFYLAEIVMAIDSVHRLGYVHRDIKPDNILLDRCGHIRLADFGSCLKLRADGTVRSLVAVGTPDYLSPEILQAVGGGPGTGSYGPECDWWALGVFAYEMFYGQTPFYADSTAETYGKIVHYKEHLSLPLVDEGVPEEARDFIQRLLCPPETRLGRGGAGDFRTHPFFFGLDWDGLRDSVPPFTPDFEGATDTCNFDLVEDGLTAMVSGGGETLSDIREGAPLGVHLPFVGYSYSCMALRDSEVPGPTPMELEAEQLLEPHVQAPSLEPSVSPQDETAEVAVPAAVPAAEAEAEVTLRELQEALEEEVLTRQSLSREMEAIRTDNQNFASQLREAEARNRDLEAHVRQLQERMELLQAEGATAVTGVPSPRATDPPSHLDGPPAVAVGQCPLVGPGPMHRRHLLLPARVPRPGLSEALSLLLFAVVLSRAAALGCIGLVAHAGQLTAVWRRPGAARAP", "conditions": "10 µM; read-out: Activity (%), DMPK(h)", "outline": "as §1"}, "[23]": {"target": "panel of human kinases (kinase named in endpoint) (Homo sapiens, UniProt P78362)", "conditions": "10 µM; read-out: Activity (%), SRPK2(h)", "outline": "as §1"}, "[24]": {"target": "panel of human kinases (kinase named in endpoint) (Homo sapiens, UniProt Q9Y243)", "conditions": "10 µM; read-out: Activity (%), PKBγ(h)", "outline": "as §1"}, "[25]": {"target": "panel of human kinases (kinase named in endpoint) (Homo sapiens, UniProt Q02156)", "conditions": "10 µM; read-out: Activity (%), PKCε(h)", "outline": "as §1"}, "[26]": {"target": "panel of human kinases (kinase named in endpoint) (Homo sapiens, UniProt P48426)", "conditions": "10 µM; read-out: Activity (%), PIP4K2a(h)", "outline": "as §1"}}}
{"smiles": "CC(C)C(=O)Nc1nc2cc(-c3ccc4c(c3)c(C(=O)NC(C)c3ccccc3)cn4C)ccn2n1", "note": "(centres unmarked) [RI-962]", "values": [{"measurement": "activity at 10 µM", "setting": "[1]", "result": 134, "unit": "%"}, {"measurement": "activity at 10 µM", "setting": "[2]", "result": 97, "unit": "%"}, {"measurement": "activity at 10 µM", "setting": "[3]", "result": 97, "unit": "%"}, {"measurement": "activity at 10 µM", "setting": "[4]", "result": 97, "unit": "%"}, {"measurement": "activity at 10 µM", "setting": "[5]", "result": 103, "unit": "%"}, {"measurement": "activity at 10 µM", "setting": "[6]", "result": 98, "unit": "%"}, {"measurement": "activity at 10 µM", "setting": "[7]", "result": 87, "unit": "%"}, {"measurement": "activity at 10 µM", "setting": "[8]", "result": 81, "unit": "%"}, {"measurement": "activity at 10 µM", "setting": "[9]", "result": 98, "unit": "%"}, {"measurement": "activity at 10 µM", "setting": "[10]", "result": 86, "unit": "%"}, {"measurement": "activity at 10 µM", "setting": "[11]", "result": 95, "unit": "%"}, {"measurement": "activity at 10 µM", "setting": "[12]", "result": 101, "unit": "%"}, {"measurement": "activity at 10 µM", "setting": "[13]", "result": 89, "unit": "%"}, {"measurement": "activity at 10 µM", "setting": "[14]", "result": 106, "unit": "%"}, {"measurement": "activity at 10 µM", "setting": "[15]", "result": 86, "unit": "%"}, {"measurement": "activity at 10 µM", "setting": "[16]", "result": 95, "unit": "%"}, {"measurement": "activity at 10 µM", "setting": "[17]", "result": 104, "unit": "%"}, {"measurement": "activity at 10 µM", "setting": "[18]", "result": 89, "unit": "%"}, {"measurement": "activity at 10 µM", "setting": "[19]", "result": 85, "unit": "%"}, {"measurement": "activity at 10 µM", "setting": "[20]", "result": 91, "unit": "%"}, {"measurement": "activity at 10 µM", "setting": "[21]", "result": 107, "unit": "%"}, {"measurement": "activity at 10 µM", "setting": "[22]", "result": 89, "unit": "%"}, {"measurement": "activity at 10 µM", "setting": "[23]", "result": 100, "unit": "%"}, {"measurement": "activity at 10 µM", "setting": "[24]", "result": 95, "unit": "%"}, {"measurement": "activity at 10 µM", "setting": "[25]", "result": 99, "unit": "%"}, {"measurement": "activity at 10 µM", "setting": "[26]", "result": 98, "unit": "%"}]}
